Assay results as given in patent US10508113B2, “Inhibitors of tyrosine kinase 2 mediated signaling” (AbbVie Inc., priority 2018, dated 2019).

Target: T1, Tyk2/Jak2 (Homo sapiens, UniProt P29597)
T1 construct: Cell Type: Frozen primary phytohemagglutinin (PHA) T-Blasts; endogenous in cells; host or cells: primary PHA T-blasts
Assay: Tyk2 (Tyk2/Jak2 PSTAT4 T-Blast) alpha screen assay: inhibition of IL-12 induced phosphorylation of STAT4 in T-blast cells
Assay type: cell-based
Conditions: IL-12 induced pSTAT4, T-blast cells
Method: 1. TYK2 (TYK2/JAK2 PSTAT4 T-BLAST) ALPHA SCREEN ASSAY
IL-12 is known to transduce its signal through IL-12 receptor via Jak2 and/or Tyk2. For that reason, the activity against Tyk2/Jak2 was measured by determining the inhibition of IL-12 induced phosphorylation of STAT4 in T-blast cells. […] See, e.g., Sohn et al., J. Immunology (2013) 2205-2216.
Cell Type: Frozen primary phytohemagglutinin (PHA) T-Blasts; Culture Medium: Roswell Park Memorial Institute (RPMI) 1640 Medium, 10% heat-inactivated fetal bovine serum (FBS), 1% penicillin/streptomycin (Pen-Strep), 10 mM hydroxyethyl piperazineethanesulfonic acid (HEPES), 10 ng/mL recombinant human interleukin-12 (rhIL-12); Assay Medium: Hank's Balanced Salt Solution (HBSS), no phenol red.
i. Automated 11-point 1:3 dilution curve: 2.5 mM top concentration dispensed in column 1 of a Corning 96-well polypropylene plate. Dimethyl sulfoxide (DMSO) was added to column 12 for high and low controls. Compounds were serially diluted 1:3 by adding 20 uL stock to 40 μL DMSO across the plate via Hamilton Microlab Star instrument.
ii. Media dilution of compounds: Serially diluted compounds were diluted 1:50 in assay medium by adding 4 μL compound to 196 μL assay medium in a Corning 96-well polypropylene plate (now 2% DMSO).
iii. […]
Primary T-Blasts from overnight culture were centrifuged, washed once in assay medium, and pelleted. T-Blasts were counted and resuspended at 12,500,000 cells/mL. […]
Phosphorylated Signal Transducer and Activator of Transcription 4 (pSTAT4) was quantified using the PerkinElmer SureFire Ultra pSTAT4 (Tyrosine 693) Assay. […]
Make master mix of Protein A donor beads using the following volumes per well: 5.88 μL Dilution Buffer and 0.12 μL […]. […] Read plate on Perkin Elmer Envision. […]
Certain compounds listed in Table C were tested for Tyk2 activity following the aforementioned Tyk2 (Tyk2/Jak2 PSTAT4 T-Blast) alpha screen assay and Jak2 (PTATS UT7) alpha screen assay. […] Selectivity for Tyk2 over Jak1, and Tyk2 over Jak2, are calculated from the tabulated activity data.

T1 sequence (P29597 whole entry, other chains not shown): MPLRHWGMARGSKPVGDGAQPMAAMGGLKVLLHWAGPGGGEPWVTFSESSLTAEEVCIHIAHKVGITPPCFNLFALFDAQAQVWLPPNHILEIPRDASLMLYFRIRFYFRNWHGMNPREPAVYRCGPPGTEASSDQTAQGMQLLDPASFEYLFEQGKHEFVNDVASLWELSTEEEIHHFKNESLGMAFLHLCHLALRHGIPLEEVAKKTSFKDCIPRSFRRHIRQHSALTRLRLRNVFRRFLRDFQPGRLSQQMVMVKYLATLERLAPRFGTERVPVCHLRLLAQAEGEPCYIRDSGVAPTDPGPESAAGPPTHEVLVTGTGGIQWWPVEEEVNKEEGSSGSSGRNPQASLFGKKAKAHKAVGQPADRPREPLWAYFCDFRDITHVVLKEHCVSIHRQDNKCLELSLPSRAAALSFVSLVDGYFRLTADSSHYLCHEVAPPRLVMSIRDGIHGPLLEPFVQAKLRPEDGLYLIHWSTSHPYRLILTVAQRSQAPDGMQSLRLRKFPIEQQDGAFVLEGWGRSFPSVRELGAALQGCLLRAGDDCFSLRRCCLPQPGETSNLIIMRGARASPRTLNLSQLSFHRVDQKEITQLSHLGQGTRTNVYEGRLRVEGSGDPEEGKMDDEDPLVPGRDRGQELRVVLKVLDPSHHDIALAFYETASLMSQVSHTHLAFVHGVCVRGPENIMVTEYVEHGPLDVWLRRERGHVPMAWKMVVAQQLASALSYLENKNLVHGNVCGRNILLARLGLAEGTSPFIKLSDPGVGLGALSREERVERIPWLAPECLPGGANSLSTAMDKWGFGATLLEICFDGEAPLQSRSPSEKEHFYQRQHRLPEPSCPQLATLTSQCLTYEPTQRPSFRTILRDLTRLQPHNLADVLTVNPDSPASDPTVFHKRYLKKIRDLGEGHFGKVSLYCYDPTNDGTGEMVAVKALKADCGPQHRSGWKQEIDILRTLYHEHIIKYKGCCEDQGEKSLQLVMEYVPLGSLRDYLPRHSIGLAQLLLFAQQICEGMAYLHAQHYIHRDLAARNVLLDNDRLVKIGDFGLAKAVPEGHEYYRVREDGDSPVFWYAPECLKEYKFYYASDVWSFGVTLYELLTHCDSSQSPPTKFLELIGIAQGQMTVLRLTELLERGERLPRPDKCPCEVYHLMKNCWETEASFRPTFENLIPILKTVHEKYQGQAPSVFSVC

SMILES | EC50
COCc1cc(-c2cn(C)c3cnc(NC(C)=O)cc23)nc([C@]2([C@H](C)O)CCOC2)c1 [Example 22.3, N-(3-(6-((R)-3-((S)-1-hydroxyethyl)tetrahydrofuran-3-yl)-4-(methoxymethyl)pyridin-2-yl)-1-methyl-1H-pyrrolo[2,3-c]pyridin-5-yl)acetamide] | 147 nM
COCc1cc(-c2cn(C)c3cnc(NC(C)=O)cc23)nc([C@]2([C@@H](C)O)CCOC2)c1 [Example 22.4, N-(3-(6-((R)-3-((R)-1-hydroxyethyl)tetrahydrofuran-3-yl)-4-(methoxymethyl)pyridin-2-yl)-1-methyl-1H-pyrrolo[2,3-c]pyridin-5-yl)acetamide] | 112 nM
